This passage reports EC50 results from PMC9588003, “TRPM8 contributes to sex dimorphism by promoting recovery of normal sensitivity in a mouse model of chronic migraine” (Nature Communications, 2022).

The assay deals with human TRPM8 (hTRPM8) (Homo sapiens, UniProt Q7Z2W7). The experiment in a line: whole-cell patch clamp, hTRPM8-HEK293 cells; agonist dose-response. Type of assay: cell-based. (In general: The patch-clamp technique gives a direct electrical read-out from membranes.)
Sequence of human TRPM8 (hTRPM8) (Q7Z2W7 whole entry): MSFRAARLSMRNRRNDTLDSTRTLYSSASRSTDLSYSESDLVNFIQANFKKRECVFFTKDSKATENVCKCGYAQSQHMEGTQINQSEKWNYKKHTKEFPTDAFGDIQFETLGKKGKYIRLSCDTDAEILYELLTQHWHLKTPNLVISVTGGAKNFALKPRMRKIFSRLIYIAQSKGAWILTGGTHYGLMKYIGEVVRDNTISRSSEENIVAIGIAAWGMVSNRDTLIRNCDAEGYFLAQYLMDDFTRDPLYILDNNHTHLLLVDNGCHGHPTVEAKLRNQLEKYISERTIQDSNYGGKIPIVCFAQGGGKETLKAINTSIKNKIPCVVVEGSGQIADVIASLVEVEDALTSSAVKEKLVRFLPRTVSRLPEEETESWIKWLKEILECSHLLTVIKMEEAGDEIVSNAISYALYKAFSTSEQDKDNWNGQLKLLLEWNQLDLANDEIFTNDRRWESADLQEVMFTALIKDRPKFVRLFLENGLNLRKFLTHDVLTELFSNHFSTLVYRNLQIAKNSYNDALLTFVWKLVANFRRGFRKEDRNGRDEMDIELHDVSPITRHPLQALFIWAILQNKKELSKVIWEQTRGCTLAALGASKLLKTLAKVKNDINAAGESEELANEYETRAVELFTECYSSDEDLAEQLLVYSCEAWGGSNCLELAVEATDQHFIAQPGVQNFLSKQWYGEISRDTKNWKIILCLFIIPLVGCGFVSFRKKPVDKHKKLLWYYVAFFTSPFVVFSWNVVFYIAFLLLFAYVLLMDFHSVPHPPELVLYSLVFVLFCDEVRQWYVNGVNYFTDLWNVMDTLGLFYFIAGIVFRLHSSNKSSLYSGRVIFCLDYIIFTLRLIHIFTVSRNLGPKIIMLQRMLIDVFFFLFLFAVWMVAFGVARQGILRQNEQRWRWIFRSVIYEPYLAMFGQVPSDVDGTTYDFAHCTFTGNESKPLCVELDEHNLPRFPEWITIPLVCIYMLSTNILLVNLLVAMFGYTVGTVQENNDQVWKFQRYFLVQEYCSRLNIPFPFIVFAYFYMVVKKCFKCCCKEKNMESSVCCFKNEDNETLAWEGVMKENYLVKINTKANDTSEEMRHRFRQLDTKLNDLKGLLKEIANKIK

Take `COc1ccc(NC(=O)[C@@H]2C[C@H](C)CC[C@H]2C(C)C)cc1` [WS12, (1R,2S,5R)−2-Isopropyl-N-(4-methoxyphenyl)−5-methylcyclohexanecarboxamide]: the EC50 (as a rule, the concentration needed to bring the measured effect to its halfway point) turned out to be 500 nM.
